Source: US7495018B2, “Substituted 1,3-thiazole compounds, their production and use” (Takeda Pharmaceutical Company Limited, priority 2000, dated 2009)

melting point | Structure (SMILES)
238 to 239 °C | CCC(=O)Nc1cc(-c2sc(-c3ccc(S(C)(=O)=O)cc3)nc2-c2cccc(C)c2)ccn1 [Example 98-2, N-[4-[4-(3-methylphenyl)-2-(4-methylsulfonylphenyl)-1,3-thiazol-5-yl]-2-pyridyl]propionamide]
182 to 184 °C | Cc1cccc(-c2nc(-c3ccc(S(C)(=O)=O)cc3)sc2-c2cc(C)nc(C)c2)c1 [Example Compound 58-2, 5-(2,6-dimethyl-4-pyridyl)-4-(3-methylphenyl)-2-(4-methylsulfonylphenyl)-1,3-thiazole]
190 to 192 °C | Cc1cc(-c2sc(-c3ccc(S(C)(=O)=O)cc3)nc2-c2ccc(F)cc2)ccn1 [Example Compound 58-5, 4-(4-fluorophenyl)-5-(2-methyl-4-pyridyl)-2-(4-methylsulfonylphenyl)-1,3-thiazole]
219 to 222 °C | Cc1cc(C)cc(-c2nc(NC(=O)Nc3ccccc3)sc2-c2cc(C)nc(C)c2)c1 [Example Compound 53-1, N-[4-(3,5-dimethylphenyl)-5-(2,6-dimethyl-4-pyridyl)-1,3-thiazol-2-yl]-N′-phenylurea]
147 to 148 °C | Cc1cccc(-c2nc(N(C)C(=O)c3cccnc3)sc2-c2ccnc(NC3CCCCC3)c2)c1 [Example Compound 42-8, N-[5-(2-cyclohexylamino-4-pyridyl)-4-(3-methylphenyl)-1,3-thiazol-2-yl]-N-methylnicotinamide]
174 to 175 °C | CCC(=O)Nc1cc(-c2sc(C3CCN(C(C)=O)CC3)nc2-c2cccc(Cl)c2)ccn1 [Example 94, N-[4-[2-(1-acetylpiperidin-4-yl)-4-(3-chlorophenyl)-1,3-thiazol-5-yl]-2-pyridyl]propionamide]
160 to 161 °C | CC(=O)Nc1cc(-c2sc(C3CCN(C(C)=O)CC3)nc2-c2cccc(Cl)c2)ccn1 [Example 93, N-[4-[2-(1-acetylpiperidin-4-yl)-4-(3-chlorophenyl)-1,3-thiazol-5-yl]-2-pyridyl]acetamide]
202 to 203 °C | CCC(=O)Nc1cc(-c2sc(C3CCNCC3)nc2-c2cccc(Cl)c2)ccn1.Cl.Cl
141 to 142 °C | CCC(=O)Nc1cc(-c2sc(C(C)(F)F)nc2-c2cccc(Cl)c2)ccn1 [Example 102-4, N-[4-[4-(3-chlorophenyl)-2-(1,1-difluoroethyl)-1,3-thiazol-5-yl]-2-pyridyl]propionamide]
198 to 199 °C | Cc1cccc(-c2nc(NC(=O)Nc3ccccc3)sc2-c2ccnc(NC3CCCCC3)c2)c1 [Example Compound 53-2, N-[5-(2-cyclohexylamino-4-pyridyl)-4-(3-methylphenyl)-1,3-thiazol-2-yl]-N′-phenylurea]
149 to 150 °C | CCc1nc(-c2cccc(Cl)c2)c(-c2ccnc(NC(C)=O)c2)s1 [Example Compound 30-2, N-[4-[4-(3-chlorophenyl)-2-ethyl-1,3-thiazol-5-yl]-2-pyridyl]acetamide]
154 to 155 °C | Cc1cccc(-c2nc(NC(=O)NOc3ccccc3)sc2-c2ccnc(C)c2)c1 [Example Compound 64, N-[4-(3-methylphenyl)-5-(2-methyl-4-pyridyl)-1,3-thiazol-2-yl]-N′-phenyloxyurea]
119 to 122 °C | CSc1ccc(-c2nc(-c3cccc(C)c3)c(-c3ccnc(C)c3)s2)cc1 [Example Compound 16-1, 4-(3-methylphenyl)-5-(2-methyl-4-pyridyl)-2-[4-(methylthio)phenyl]-1,3-thiazole]
93 to 94 °C | CCC(=O)Nc1cc(-c2sc(CC)nc2-c2cccc(C(C)C)c2)ccn1 [Example 84-7, N-[4-[2-ethyl-4-[3-(1-methylethyl)phenyl]-1,3-thiazol-5-yl]-2-pyridyl]propionamide]
136 to 137 °C | CCc1nc(-c2ccc(Cl)cc2)c(-c2ccnc(N)c2)s1 [Example Compound 20-7, 4-[4-(4-chlorophenyl)-2-ethyl-1,3-thiazol-5-yl]-2-pyridylamine]
211 to 212 °C | Cc1cccc(-c2nc(NC(=O)c3ccc(Cl)nc3)sc2-c2ccnc(NC3CCCC3)c2)c1 [Example Compound 44-2, 6-chloro-N-[5-(2-cyclopentylamino-4-pyridyl)-4-(3-methylphenyl)-1,3-thiazol-2-yl]nicotinamide]
188 to 189 °C | Cc1cccc(-c2nc(N)sc2-c2ccnc(N3CCOCC3)c2)c1 [Example Compound 34-1, [4-(3-methylphenyl)-5-(2-morpholino-4-pyridyl)-1,3-thiazol-2-yl]amine]
128 to 129 °C | CCOC(=O)Cc1nc(-c2cccc(C)c2)c(-c2ccnc(N)c2)s1 [Example Compound 18-5, Ethyl [5-(2-amino-4-pyridyl)-4-(3-methylphenyl)-1,3-thiazol-2-yl]acetate]
197 to 199 °C | Cc1cccc(-c2nc(-c3ccc(S(C)(=O)=O)cc3)sc2-c2ccnc(NC3CCCCC3)c2)c1 [Example Compound 36-5, N-cyclohexyl-4-[4-(3-methylphenyl)-2-(4-methylsulfonylphenyl)-1,3-thiazol-5-yl]-2-pyridylamine]
152 to 154 °C | CC(=O)Nc1cc(-c2sc(C(C)OC(=O)c3ccccc3)nc2-c2cccc(Cl)c2)ccn1 (stereo not shown) [Example 103-1, 1-[5-(2-acetylamino-4-pyridyl)-4-(3-chlorophenyl)-1,3-thiazol-2-yl]ethyl benzoate]
113 to 114 °C | CSCc1nc(-c2cccc(C)c2)c(-c2ccnc(N)c2)s1 [Example 113-1, 4-[4-(3-methylphenyl)-2-(methylthio)methyl-1,3-thiazol-5-yl]-2-pyridylamine]
186 to 187 °C | CNc1nc(-c2cccc(C)c2)c(-c2ccnc(F)c2)s1 [Example Compound 8, N-methyl-[5-(2-fluoro-4-pyridyl)-4-(3-methylphenyl)-1,3-thiazol-2-yl]amine]
136 to 138 °C | O=C(Nc1nc(-c2ccc(F)cc2)c(-c2ccnc(NC3CCCCC3)c2)s1)c1cccnc1 [Example Compound 42-5, N-[5-(2-cyclohexylamino-4-pyridyl)-4-(4-fluorophenyl)-1,3-thiazol-2-yl]nicotinamide]
261 to 262 °C | Cc1cc(-c2sc(NC(=O)c3cccnc3)nc2-c2ccc(F)cc2)ccn1 [Example Compound 42-7, N-[4-(4-fluorophenyl)-5-(2-methyl-4-pyridyl)-1,3-thiazol-2-yl]nicotinamide]
142 to 143 °C | CCc1nc(-c2ccc(F)c(C)c2)c(-c2ccnc(NC(C)=O)c2)s1 [Example 82-4, N-[4-[2-ethyl-4-(4-fluoro-3-methylphenyl)-1,3-thiazol-5-yl]-2-pyridyl]acetamide]
111 to 112 °C | CSCc1nc(-c2cccc(Cl)c2)c(-c2ccnc(N)c2)s1
153 to 154 °C | CCc1nc(-c2cccc(F)c2)c(-c2ccnc(N)c2)s1 [Example Compound 20-6, 4-[2-ethyl-4-(3-fluorophenyl)-1,3-thiazol-5-yl]-2-pyridylamine]
224 to 225 °C | CCC(=O)Nc1cc(-c2sc(-c3ccc(S(C)(=O)=O)cc3)nc2-c2cccc(Cl)c2)ccn1 [Example Compound 58-7, N-[4-[4-(3-chlorophenyl)-2-(4-methylsulfonylphenyl)-1,3-thiazol-5-yl]-2-pyridyl]propionamide]
